The source of these data is patent US20200087258A1, “INHIBITOR OF CITRATE TRANSPORTER AND THEIR USE IN THERAPY” (Eternygen GmbH, priority 2017, published 2020).

Experiment [1] deals with T1, INDY (Homo sapiens, UniProt Q86YT5). Description: 14C-citrate uptake in HepG2 cells endogenously expressing INDY (NaCT). To be noted: endogenous INDY. It is filed as cell-based. Here is the method:
The compound was obtained by screening of a library containing more than 50,000 lead-like compounds and fragments. The library was tested using a functional citrate uptake assay with HEK293 cells overexpressing recombinant human INDY. The following hit confirmation was conducted in the same assay system. To confirm the activity of selected compounds on the target INDY another cell assay was conducted. In this assay system citrate uptake was measured using HepG2 cells which endogenously express INDY. Furthermore selectivity of selected compounds was tested for two other transporters in different assay systems. The first transporter was the glutamate transporter GLT-1 tested in a glutamate uptake assays using HEK293 cells overexpressing recombinant human GLT-1. The second transporter was the glucose transporter GLUT1 tested in a glucose uptake assay using Huh-7 cells which endogenously express GLUT1. Compounds were considered to be selective with an at least 5-fold higher activity for INDY than for the other two transporters.
Cells were maintained in cell medium using cell culture grade flasks (CellSTACK Corning, 500 cm2 dishes or T175 depending on cell number). The selection antibiotic and G418 (800 μg/ml) was added during cultivation but not for seeding into assay plates. For splitting, cells were washed with PBS (w/o Ca2+, Mg2+, phenol red) and detached with Trypsin/EDTA. Throughout cultivation cells were kept sub-confluent. Detached cells (50,000 cells/well) were seeded in 96-well plates (white, clear bottom from Corning #655098) and incubated over night before usage in the assay. The following media were used. For HEK293 cells expressing INDY MEM (PAA)+10% FCS+1×P/S+2 mM L-Gln; for HEK293 cells expressing GLT-1 DMEM (Gibco)+10% FCS+400 µg/ml G418; for Huh7 cells DMEM (Gibco)+10% FCS+2 mM L-Gin (+1×P/S); for HepG2 cells MEM (PAA, Cat # E15-024)+10% FCS+2 mM L-Gin+1×NEAA+1 mM Na-Pyruvat
The following assay buffers for the particular uptake reaction were used. Citrate uptake buffer: 120 mM NaCl, 5.4 mM KCl, 0.8 mM MgSO4, 5 mM glucose, 1.8 mM CaCl2, 25 mM Hepes, 25 mM MES, pH 6.5. Glutamate uptake buffer: HBSS, 1 mM CaCl2, 1 mM MgCl2, 20 mM Hepes pH 7.4. Glucose uptake buffer: 25 mM Hepes+25 mM MES pH 7.4, 120 mM NaCl, 5.4 mM KCl, 1.8 mM CaCl2, 0.8 mM MgSO4.
INDY mediated citrate uptake was also determined in HepG2 cells. To determine the uptake of ^14C labelled citrate into cells, HepG2 cells endogenously expressing human NaCT were used. (Gopal et al. 2007 Am J Physiol Gastrointest Liver Physiol 292).
HepG2 cells were seeded into white clear-bottom 96-well plates (50,000/well) coated with collagen and incubated at 37° C. for 16-24 hours. After that plates were washed once with assay buffer using automated washing/LS 405 Selectors, BioTek ending with a buffer volume of 40 μl. Then 5 μl of compound solution in assay buffer was added and incubated for 5 min at 37° C. in cell incubator, HERA cell Heraeus. Afterwards 10 μl of substrate 14C-citrate (10 nM) were added and incubated for another 90 min at 37° C. in cell incubator, HERAcell. Then plates were washed 3× with 200 μl buffer and […] cell lysis induced by adding 50 μl ice-cold NaOH (100 mM). Plates were incubated for 25 min at RT on a plate shaker and afterwards 200 μl scintillation fluid was added and incubated for 15 min on a plate shaker at RT and for another 15 min without shaking at RT. Plates were measured using a TopCount system. As a positive control 5 mM citrate was applied. It is possible to use this assay also in analogy in a 384-well plate format.

Experiment [2] addresses T1, INDY. Description: 14C-citrate uptake in HEK293 cells overexpressing recombinant human INDY (NaCT). Set-up: expressed in transfected cells; host or cells: HEK293. Type of experiment: cell-based. The method, boiled down:
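HEK293 cells overexpressing human NaCT, 50,000/well, preincubated 5-30 min at 37 °C with compound in pH 6.5 Na+ buffer. 14C-citrate ([…]) uptake then ran 20-90 min at 37 °C, followed by ice-cold washes, NaOH lysis and scintillation counting. 10 mM citrate served as positive control.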

T1 sequence (Q86YT5 whole entry, the tested form may be a part): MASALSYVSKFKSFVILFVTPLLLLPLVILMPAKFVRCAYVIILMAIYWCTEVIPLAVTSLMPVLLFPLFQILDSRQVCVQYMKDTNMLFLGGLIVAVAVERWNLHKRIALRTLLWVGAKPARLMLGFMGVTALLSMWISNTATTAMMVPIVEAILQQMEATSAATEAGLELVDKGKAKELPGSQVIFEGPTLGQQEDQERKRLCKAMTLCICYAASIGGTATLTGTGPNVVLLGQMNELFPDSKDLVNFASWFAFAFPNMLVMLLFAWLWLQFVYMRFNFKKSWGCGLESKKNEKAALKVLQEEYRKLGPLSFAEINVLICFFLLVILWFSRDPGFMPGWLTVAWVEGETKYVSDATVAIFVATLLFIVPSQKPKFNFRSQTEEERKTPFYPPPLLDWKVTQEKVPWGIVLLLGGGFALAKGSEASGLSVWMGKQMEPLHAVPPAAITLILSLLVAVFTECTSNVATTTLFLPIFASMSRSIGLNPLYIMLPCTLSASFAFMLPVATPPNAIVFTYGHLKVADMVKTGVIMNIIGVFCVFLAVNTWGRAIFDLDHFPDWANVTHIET

For `O=C(NCc1ccccc1O)C1CCN(S(=O)(=O)/C=C/c2ccccc2)CC1` [Example 41, N-[(2-hydroxyphenyl)methyl]-1-[(E)-2-phenylethenesulfonyl]piperidine-4-carboxamide], the IC50 in experiment [1] is 3.2 µM; in experiment [2], 1.8 µM.
With `O=C(NCc1ccccc1F)C1CCN(S(=O)(=O)c2ccc(Cl)cc2Cl)CC1` [Example 43, 1-(2,4-dichlorobenzenesulfonyl)-N-[(2-fluorophenyl)methyl]piperidine-4-carboxamide], the results for the IC50 in experiment [1] and in experiment [2] were 0.4 µM and 0.3 µM, respectively.
The matching figures for `CC(C)(C)c1ccc(S(=O)(=O)N2CC(C(=O)NCc3ccccc3F)C2)cc1` [Example 46, 1-(4-tert-butylbenzenesulfonyl)-N-[(2-fluorophenyl)methyl]azetidine-3-carboxamide]: 9.3 µM and 9.3 µM.
With `O=C(NCc1ccccc1F)C1CCN(S(=O)(=O)c2ccc3c(c2)OC(F)(F)O3)CC1` [Example 47, 1-[(2,2-difluoro-2H-1,3-benzodioxol-5-yl)sulfonyl]-N-[(2-fluorophenyl)methyl]piperidine-4-carboxamide], the IC50 in experiment [1] and in experiment [2] was 0.7 µM each time.
With `O=C(NCc1ccccn1)C1CCN(S(=O)(=O)c2ccc(OC(F)(F)F)cc2)CC1` [Example 58, N-[(pyridin-2-yl)methyl]-1-[4-(trifluoromethoxy)benzenesulfonyl]piperidine-4-carboxamide], the IC50 in experiment [1] came to 2.7 µM; in experiment [2], 6.4 µM.
`O=C(NCc1ccccc1F)C1CCN(S(=O)(=O)c2cccc(Cl)c2)CC1` [Example 59, 1-(3-chlorobenzenesulfonyl)-N-[(2-fluorophenyl)methyl]piperidine-4-carboxamide]: the IC50 in experiment [1] turned out to be 0.9 µM; in experiment [2] it was 1.1 µM.
As to `O=C(NCc1ccccn1)C1CCN(S(=O)(=O)c2cc(Cl)ccc2Cl)CC1` [Example 62, 1-(2,5-dichlorobenzenesulfonyl)-N-[(pyridin-2-yl)methyl]piperidine-4-carboxamide], the IC50 is 4.6 µM in experiment [1] and 8.2 µM in experiment [2].
On to `O=C(NCc1ccccn1)C1CCN(S(=O)(=O)c2ccc(Cl)c(Cl)c2)CC1` [Example 67, 1-(3,4-dichlorobenzenesulfonyl)-N-[(pyridin-2-yl)methyl]piperidine-4-carboxamide], for which the 50% inhibitory concentration (IC50) in experiment [1] amounted to 7.2 µM; in experiment [2], 18.3 µM.
Take `O=C(NCc1ccccc1CO)C1CCN(S(=O)(=O)/C=C/c2ccccc2)CC1` [Example 69, N-{[2-(hydroxymethyl)phenyl]methyl}-1-[(E)-2-phenylethenesulfonyl]pipendine-4-carboxamide]: the IC50 in experiment [1] was found to be 4.5 µM; in experiment [2], 11.7 µM.
The matching figures for `O=C(NCc1ccccn1)C1CCN(S(=O)(=O)c2ccc(C(F)(F)F)cc2Cl)CC1` [Example 74, 1-[2-chloro-4-(trifluoromethyl)benzenesulfonyl]-N-[(pyridin-2-yl)methyl]piperidine-4-carboxamide]: 5.1 µM and 7.1 µM.
As for `O=C(NCc1ccccn1)C1CCN(S(=O)(=O)c2cccc(C(F)(F)F)c2)CC1` [Example 75, N-[(pyridin-2-yl)methyl]-1-[3-(trifluoromethyl)benzenesulfonyl]pipendine-4-carboxamide], the IC50 amounted to 3.3 µM in experiment [1] and 5.7 µM in experiment [2].
`O=C(NCc1ccccn1)C1CCN(S(=O)(=O)c2cc(F)cc(Cl)c2)CC1` [Example 78, 1-(3-chloro-5-fluorobenzenesulfonyl)-N-[(pyridin-2-yl)methyl]pipendine-4-carboxamide]: the figures for the IC50 in experiment [1] and in experiment [2] were 2.4 µM and 4.9 µM, respectively.
With `O=C(NCc1ccccn1)C1CCN(S(=O)(=O)c2cc(F)cc(C(F)(F)F)c2)CC1` [Example 84, 1-[3-fluoro-5-(trifluoromethyl)benzenesulfonyl]-N-[(pyridin-2-yl)methyl]pipendine-4-carboxamide], the values for the IC50 in experiment [1] and in experiment [2] were 2.2 µM and 4.3 µM, respectively.
The matching figures for `O=C(NCc1ccccn1)C1CCN(S(=O)(=O)c2cccc(S(F)(F)(F)(F)F)c2)CC1` [Example 85, 1-[3-(pentafluoro-lambda6-sulfanyl)benzenesulfonyl]-N-[(pyridin-2-yl)methyl]pipendine-4-carboxamide]: 3 µM and 6.4 µM.
`O=C(NCc1ccccn1)C1CCN(S(=O)(=O)c2ccc(I)cc2)CC1` [Example 95, 1-(4-iodobenzenesulfonyl)-N-[(pyridin-2-yl)methyl]piperidine-4-carboxamide]: the IC50 in experiment [1] amounted to 2.4 µM; in experiment [2], 5.5 µM.
The like results for `O=C(NCc1ccccn1)C1CCN(S(=O)(=O)c2ccc(C3CC3)cc2)CC1` [Example 97, 1-(4-cyclopropylbenzenesulfonyl)-N-[(pyridin-2-yl)methyl]piperidine-4-carboxamide] were, in that order, 3.8 µM and 9.2 µM.
For the compound `O=C(NCc1ccccn1)C1CCN(S(=O)(=O)c2ccc(CC(F)(F)F)cc2)CC1` [Example 99, N-[(pyridin-2-yl)methyl]-1-[4-(2,2,2-trifluoroethyl)benzenesulfonyl]piperidine-4-carboxamide], the IC50 stood at 3.2 µM in experiment [1] and 6.3 µM in experiment [2].
The matching figures for `O=C(NCc1cccc(O)c1)C1CCN(S(=O)(=O)c2cc(Cl)cc(Cl)c2)CC1` [Example 114, 1-(3,5-dichlorobenzenesulfonyl)-N-[(3-hydroxyphenyl)methyl]piperidine-4-carboxamide]: 0.6 µM and 0.7 µM.
For `O=C(NCc1cccc(F)c1)C1CCN(S(=O)(=O)c2cc(Cl)cc(Cl)c2)CC1` [Example 115, 1-(3,5-dichlorobenzenesulfonyl)-N-[(3-fluorophenyl)methyl]piperidine-4-carboxamide], the IC50 in experiment [1] is 0.1 µM; in experiment [2], 0.2 µM.
Turning to `O=C(NCc1ccccn1)C1CCN(S(=O)(=O)c2cc(Cl)cc(C3COC3)c2)CC1` [Example 116, 1-[3-chloro-5-(oxetan-3-yl)benzenesulfonyl]-N-[(pyridin-2-yl)methyl]piperidine-4-carboxamide], the IC50 in experiment [1] worked out at 2.3 µM; in experiment [2], 5.9 µM.
Turning to `O=C(NCc1cccc(CO)c1)C1CCN(S(=O)(=O)c2cc(Cl)cc(Cl)c2)CC1` [Example 117, 1-(3,5-dichlorobenzenesulfonyl)-N-{[3-(hydroxymethyl)phenyl]methyl}piperidine-4-carboxamide], the IC50 in experiment [1] worked out at 0.5 µM; in experiment [2], 0.8 µM.
Consider `COC(=O)c1cccc(CNC(=O)C2CCN(S(=O)(=O)c3cc(Cl)cc(Cl)c3)CC2)c1` [Example 118, methyl 3-({[1-(3,5-dichlorobenzenesulfonyl)piperidin-4-yl]formamido}methyl)benzoate], for which the IC50 in experiment [1] is 4 µM; in experiment [2], 5.7 µM.
In the case of `O=C(NCc1ccccn1)C1CN(S(=O)(=O)c2cc(Cl)cc(Cl)c2)C1` [Example 120, 1-(3,5-dichlorobenzenesulfonyl)-N-[(pyridin-2-yl)methyl]azetidine-3-carboxamide], the IC50 in experiment [1] stood at 2.8 µM; in experiment [2], 7.5 µM.
For `O=C(NCc1ccc(O)cc1)C1CCN(S(=O)(=O)c2cc(Cl)cc(Cl)c2)CC1` [Example 123, 1-(3,5-dichlorobenzenesulfonyl)-N-[(4-hydroxyphenyl)methyl]piperidine-4-carboxamide], the values for the IC50 in experiment [1] and in experiment [2] were 1.3 µM and 2 µM, respectively.

What is called IC50 is the concentration at which inhibition is half-maximal.
